The values that follow come from publication PMC10649961, “Novel Mitochondria-Targeted Amphiphilic Aminophosphonium Salts and Lipids Nanoparticles: Synthesis, Antitumor Activity and Toxicity” (Nanomaterials, 2023).

For series [1], the system named is SK-OV-3. The following applies: calculated relative to the cell line WI38 (a).
For series [2], the system named is A549. Put plainly: cells. The following applies: Homo sapiens, A549, 48 h, read-out: Cytotoxic Effects (IC50).
Series [3] is described as follows: In vivo acute toxicity, single intraperitoneal injection. More on the design: species or system mice. The following applies: male, CD-1, mouse, in vivo, ip, male CD-1 mice, single intraperitoneal administration, 14 days, Probit analysis. As for the experimental part: (§1) The study of acute toxicity was performed on males of outbred white mice of the CD-1 line at the age of 2–3 months, weighing 20–30 g. The total number of mice participating in the experiment was 300. Mice were obtained from the Research and Production Enterprise Laboratory Animal Farm based at the Branch of Shemyakin and Ovchinnikov Institute of Bioorganic Chemistry of the Russian Academy of Sciences (Pushchino, Russia). The animals were kept in accordance with in standard conditions in a vivarium with 12 h of daylight and free access to food and water. The animals were fed complete feed made according to specifications (protein 22%, fiber 4% max., fat 5% max, ash 9% max, humidity 13.5% max, caloric value 295 kcal/100 g). The studies were conducted with a single parenteral–intraperitoneal (intra-peritoneal) injection, according to the method.
(§2) The substances were introduced in a sterile saline DMSO (40% vol.) solution. Solutions of the substances were prepared immediately before administration. The total volume of the injected liquid was 0.1 mL/10 g of animal weight. As a control, a group of mice was administered under similar conditions an equivalent amount (0.1 mL/10 g, or 10 mL/kg) of a solvent—40% DMSO on sterile saline solution. The substances were administered in doses ranging from 1 to 100 mg/kg; there were six animals in each group. To assess acute toxicity, the animals were monitored 14 days after administration of the substance, assessing their general condition and recording deaths.
(§3) The study of the acute toxicity parameters of six aminophosphonium salts 4a, 4b, 4d, 5a, 5b, and 6b was performed on male outbreed white mice of the CD-1 line. Acute toxicity was determined with a single parenteral (intraperitoneal) administration in sterile saline/DMSO (40% vol.) solution at doses from 1 to 100 mg/kg. To assess acute toxicity, the animals were monitored for 14 days after the introduction of substances, assessing their general condition and recording deaths. Next, lethal doses LD50, LD0, LD16, LD84, and LD100 were calculated using the Probit analysis method. LD0, LD16, LD84, and LD100 are given in Supplementary Material (Table S1).

For series [4], the system named is mice of the CD-1 line. The description is as above. The method, then:
as §1, §2, §3

Series [5] deals with Hep G2. As to conditions: calculated relative to the cell line WI38 (a).
The subject of series [6] is HuTu 80. As to conditions: calculated relative to the cell line WI38 (a).
For series [7], the system named is DU-145. Description: cells. The following applies: Homo sapiens, DU-145, 48 h, read-out: Cytotoxic Effects (IC50), DU-145, MTT assay, 48 h. A general note: Tetrazolium dyes change colour on reduction, which living cells bring about.
Series [8] concerns M-HeLa. Description: cells. The following applies: Homo sapiens, 48 h, read-out: Cytotoxic Effects (IC50).
Series [9] deals with SK-OV-3. Put plainly: cells. The following applies: Homo sapiens, SK-OV-3, 48 h, read-out: Cytotoxic Effects (IC50).
The test system of series [10] is T98G. Description: cells. As to conditions: Homo sapiens, 48 h, read-out: Cytotoxic Effects (IC50).
The subject of series [11] is PC3. As to conditions: calculated relative to the cell line WI38 (a).
The test system of series [12] is WI38.
The subject of series [13] is M-HeLa. As to conditions: calculated relative to the cell line WI38 (a).
In series [14] the test system is HuTu 80. Description: cells. The following applies: Homo sapiens, HuTu80, 48 h, read-out: Cytotoxic Effects (IC50).
For series [15], the system named is MCF-7. As to conditions: calculated relative to the cell line WI38 (a).
In series [16] the test system is PC3. Put plainly: cells. As to conditions: Homo sapiens, PC-3, 48 h, read-out: Cytotoxic Effects (IC50), PC3, MTT assay, 48 h.
Series [17] has as its system PANC-1. Description: cells. As to conditions: Homo sapiens, PANC-1, 48 h, read-out: Cytotoxic Effects (IC50).
Series [18] concerns MCF-7. Description: cells. As to conditions: Homo sapiens, MCF7, 48 h, read-out: Cytotoxic Effects (IC50).
Series [19] concerns Hep G2. Put plainly: cells. The following applies: Homo sapiens, HepG2, 48 h, read-out: Cytotoxic Effects (IC50).
Series [20] has as its system PANC-1. As to conditions: calculated relative to the cell line WI38 (a).
In series [21] the test system is A549. As to conditions: calculated relative to the cell line WI38 (a).
In series [22] the test system is DU-145. As to conditions: calculated relative to the cell line WI38 (a).
The test system of series [23] is T98G. As to conditions: calculated relative to the cell line WI38 (a).

By IC50 is commonly meant the concentration at which inhibition is half-maximal. For orientation: LD50 means the dose at which mortality reaches 50%. Higher therefore signals a less toxic substance. Take `CCCCCC[P+](c1ccccc1)(N(CC)CC)N(CC)CC` [5a, Bis(diethylamino)(hexyl)(phenyl)phosphonium iodide]: the “selectivity index (SI)” value was 3.2 in series [1]; 3.8 in series [5]; 210 in series [6]; 13 in series [11]; 2.7 in [13]; 3.7 in series [15]. In addition, the “selectivity index (SI)” value in series [20] was 3.5; in series [21], 3.7; in [22], 10; in series [23], 3.7. Moreover, the IC50 in series [2] came to 17 ± 1.3 µM; in series [7], 6.3 ± 0.5 µM; in series [8], 23 ± 1.6 µM; in series [9], 20 ± 1.6 µM; in [10], 30.3 ± 2.1 µM; in [14] it was 0.3 ± 0.02 µM. The concentration for half-maximal inhibition (IC50) in series [16] was determined as 4.9 ± 0.4 µM; in [17], 17.8 ± 1.4 µM; in [18] it was 17.1 ± 1.3 µM; in series [19], 16.5 ± 1.3 µM. For the same compound, the median lethal dose (LD50) at 14 days in [3] is 44.7 mg/kg. Further, the “onset of animal death after administration” value in [4] (CD-1 mice, i.p., doses of LD100) is 1 to 2 h. For the same compound, in [4] (according to the classification [105], parenteral administration), the acute toxicity class result was “moderately toxic”. Moreover, the “times less toxic toward the normal WI38 cell line compared with doxorubicin” value in series [12] is 157 times.
